Reference: US10047105B2, “Gyrase inhibitors” (Merck Sharp & Dohme Corp., priority 2009, dated 2018)
In brackets after ≈: the same amount, converted by molar mass.

Tests used:
S. aureus ATCC 13709 = assay: MIC, antibacterial potency, S. aureus; format: cell-based
S. pneumoniae ATCC 51916 = assay: MIC, S. pneumoniae; format: cell-based
[1] = S. pneumoniae (Spn52), in µg/mL

## CCc1[nH]c2nc(Sc3cccnc3)nc(NCCCn3ccnc3)c2c1C=O.O=C(O)C(F)(F)F.O=C(O)C(F)(F)F [700,261]
S. aureus ATCC 13709; S. aureus
  MIC, SA: 16 µg/mL
S. pneumoniae ATCC 51916; S. pneumoniae
  MIC Spn52: 32 µg/mL

## CCc1[nH]c2nc(Sc3cnc4nccnc4c3)nc(N3CCCC(CO)C3)c2c1Cl (centres unmarked) [700,814]
S. aureus ATCC 13709; S. aureus (SA), in µg/mL
  MIC, SA: 2
S. pneumoniae ATCC 51916; [1]
  MIC Spn52: 4

## CCc1[nH]c2nc(Sc3cc(=O)n(CCC(F)(F)F)c(=O)[nH]3)nc(N3CC(O)C3)c2c1Br [700,415]
S. aureus ATCC 13709; S. aureus
  MIC, SA: ≤ 0.5 µg/mL
S. pneumoniae ATCC 51916; S. pneumoniae
  MIC Spn52: 1 µg/mL (≈ 1.87 µM)

## CCc1[nH]c2nc(Sc3nc(C(=O)O)cs3)nc(N3CCNCC3)c2c1Cl.O=C(O)C(F)(F)F [700,398]
S. aureus ATCC 13709; S. aureus
  MIC, SA: > 64 µg/mL
S. pneumoniae ATCC 51916; S. pneumoniae
  MIC Spn52: > 64 µg/mL

## CCc1[nH]c2nc(Cc3cccnc3)nc(N(C)C)c2c1Cl [700,478]
S. aureus ATCC 13709; S. aureus
  MIC, SA: 64 µg/mL (≈ 203 µM)
S. pneumoniae ATCC 51916; S. pneumoniae
  MIC Spn52: > 64 µg/mL

## CCc1[nH]c2nc(Sc3ccc4c(N)n[nH]c4c3)nc(N3CC(N)C3)c2c1Cl [700,850]
S. aureus ATCC 13709; S. aureus (SA), in µg/mL
  MIC, SA: 64
S. pneumoniae ATCC 51916; [1]
  MIC Spn52: >64

## CCc1[nH]c2nc(Sc3cnc4nccnc4c3)nc(OC3CNC3)c2c1Br [700,481]
S. aureus ATCC 13709; S. aureus
  MIC, SA: 8 µg/mL (≈ 17.5 µM)
S. pneumoniae ATCC 51916; S. pneumoniae
  MIC Spn52: 2 µg/mL (≈ 4.36 µM)

## CCc1[nH]c2nc(Sc3nc4ncccc4c(=O)[nH]3)nc(N3CC(O)C3)c2c1Br [700,358]
S. aureus ATCC 13709; S. aureus
  MIC, SA: > 64 µg/mL
S. pneumoniae ATCC 51916; S. pneumoniae
  MIC Spn52: > 64 µg/mL

## CCc1[nH]c2nc(Oc3cncc(C#N)c3)nc(Oc3cncnc3)c2c1Br [700,899]
S. aureus ATCC 13709; S. aureus (SA), in µg/mL
  MIC, SA: <=0.5
S. pneumoniae ATCC 51916; [1]
  MIC Spn52: <=0.5

## CCc1[nH]c2nc(Oc3cncnc3)nc(Oc3cncc(C#N)c3)c2c1Br [700,878]
S. aureus ATCC 13709; S. aureus (SA), in µg/mL
  MIC, SA: <=0.5
S. pneumoniae ATCC 51916; [1]
  MIC Spn52: <=0.5

## CCc1[nH]c2nc(Oc3cccc(C#N)c3)nc(/C=C\c3cccc(OC)c3)c2c1Cl [700,892]
S. aureus ATCC 13709; S. aureus (SA), in µg/mL
  MIC, SA: >64
S. pneumoniae ATCC 51916; [1]
  MIC Spn52: >64

## CCc1[nH]c2nc(Sc3cnc4nccnc4c3)nc(N3CC(NC(=O)COn4nnc5ccccc54)C3)c2c1Cl [700,506]
S. aureus ATCC 13709; S. aureus
  MIC, SA: ≤ 0.5 µg/mL
S. pneumoniae ATCC 51916; S. pneumoniae
  MIC Spn52: 1 µg/mL (≈ 1.7 µM)

## CCc1[nH]c2nc(SC)nc(CCCNCCN3CCOCC3)c2c1Br [700,334]
S. aureus ATCC 13709; S. aureus
  MIC, SA: > 64 µg/mL
S. pneumoniae ATCC 51916; S. pneumoniae
  MIC Spn52: > 64 µg/mL

## CCOc1nc(Sc2nc(C(=O)N[C@H]3CCOC3=O)co2)nc2[nH]c(CC)c(Br)c12 [700,294]
S. aureus ATCC 13709; S. aureus
  MIC, SA: > 64 µg/mL
S. pneumoniae ATCC 51916; S. pneumoniae
  MIC Spn52: > 64 µg/mL

## CCc1[nH]c2nc(Sc3cnc4nccnc4c3)nc(N3CC(CNC(=O)c4cn(C)nc4C(F)(F)F)C3)c2c1Cl [700,524]
S. aureus ATCC 13709; S. aureus
  MIC, SA: ≤ 0.5 µg/mL
S. pneumoniae ATCC 51916; S. pneumoniae
  MIC Spn52: ≤ 0.5 µg/mL

## CCc1[nH]c2nc(Sc3cnc4nccnc4c3)nc(N3CC(NC(=O)c4cc(N)ccn4)C3)c2c1Cl [700,454]
S. aureus ATCC 13709; S. aureus
  MIC, SA: ≤ 0.5 µg/mL
S. pneumoniae ATCC 51916; S. pneumoniae
  MIC Spn52: 1 µg/mL (≈ 1.88 µM)

## CCc1[nH]c2nc(Sc3cnc4nccnc4c3)nc(OS(=O)(=O)c3ccc(C)cc3)c2c1Cl [700,558]
S. aureus ATCC 13709; S. aureus
  MIC, SA: 8 µg/mL (≈ 15.6 µM)
S. pneumoniae ATCC 51916; S. pneumoniae
  MIC Spn52: > 64 µg/mL

## CCc1[nH]c2nc(Sc3cnc4nccnc4c3)nc(N3CC4C(C3)C4(CN)NCc3ccccc3)c2c1Cl (centres unmarked) [700,886]
S. aureus ATCC 13709; S. aureus (SA), in µg/mL
  MIC, SA: >8
S. pneumoniae ATCC 51916; [1]
  MIC Spn52: 8

## CCc1[nH]c2nc(Sc3cnc(N4CCC4)c(C#N)c3)nc(N3CCC(N)C3)c2c1Cl (centres unmarked) [700,589]
S. aureus ATCC 13709; S. aureus
  MIC, SA: 2 µg/mL (≈ 4.4 µM)
S. pneumoniae ATCC 51916; S. pneumoniae
  MIC Spn52: 8 µg/mL (≈ 17.6 µM)

## CCc1[nH]c2nc(Cc3cccnc3)nc(Oc3cccc(C#N)c3)c2c1Cl [700,875]
S. aureus ATCC 13709; S. aureus (SA), in µg/mL
  MIC, SA: 32
S. pneumoniae ATCC 51916; [1]
  MIC Spn52: >32

## CCc1[nH]c2nc(Sc3cnc4nccnc4c3)nc(N3CCC(N)C3)c2c1Cl (centres unmarked) [700,540]
S. aureus ATCC 13709; S. aureus
  MIC, SA: 1 µg/mL (≈ 2.34 µM)
S. pneumoniae ATCC 51916; S. pneumoniae
  MIC Spn52: 2 µg/mL (≈ 4.68 µM)

## CCc1[nH]c2nc(Oc3cncnc3)nc(Oc3cncnc3)c2c1Cl.O=C(O)C(F)(F)F [700,551]
S. aureus ATCC 13709; S. aureus
  MIC, SA: 2 µg/mL
S. pneumoniae ATCC 51916; S. pneumoniae
  MIC Spn52: 4 µg/mL

## CCc1[nH]c2nc(Sc3cnc4nccnc4c3)nc(N3CC(CN)C3)c2c1Br [700,467]
S. aureus ATCC 13709; S. aureus
  MIC, SA: 4 µg/mL (≈ 8.49 µM)
S. pneumoniae ATCC 51916; S. pneumoniae
  MIC Spn52: 16 µg/mL (≈ 33.9 µM)

## CCc1[nH]c2nc(Sc3cc(=O)[nH]c(=O)[nH]3)nc(N3CC(O)C3)c2c1Cl [700,359]
S. aureus ATCC 13709; S. aureus
  MIC, SA: 2 µg/mL (≈ 5.07 µM)
S. pneumoniae ATCC 51916; S. pneumoniae
  MIC Spn52: 8 µg/mL (≈ 20.3 µM)

## CCc1[nH]c2nc(Sc3cnc4nccnc4c3)nc(N3CC(NC)C3)c2c1Cl [700,714]
S. aureus ATCC 13709; S. aureus
  MIC, SA: 2 µg/mL (≈ 4.68 µM)
S. pneumoniae ATCC 51916; S. pneumoniae
  MIC Spn52: 4 µg/mL (≈ 9.37 µM)

## CCc1[nH]c2nc(Sc3nc4ncccc4c(=O)[nH]3)nc(N3CC(O)C3)c2c1Cl [700,353]
S. aureus ATCC 13709; S. aureus
  MIC, SA: > 64 µg/mL
S. pneumoniae ATCC 51916; S. pneumoniae
  MIC Spn52: > 64 µg/mL

## CCc1[nH]c2nc(Nc3ccc4c(N)nc(C)nc4c3)nc(N3CC(N)C3)c2c1Cl.O=C(O)C(F)(F)F.O=C(O)C(F)(F)F [700,531]
S. aureus ATCC 13709; S. aureus
  MIC, SA: 8 µg/mL
S. pneumoniae ATCC 51916; S. pneumoniae
  MIC Spn52: 4 µg/mL

## CCc1[nH]c2nc(Sc3cc(=O)n(CC(=O)O)c(=O)[nH]3)nc(N3CC(O)C3)c2c1Br [700,402]
S. aureus ATCC 13709; S. aureus
  MIC, SA: > 64 µg/mL
S. pneumoniae ATCC 51916; S. pneumoniae
  MIC Spn52: > 64 µg/mL

## CCc1[nH]c2nc(Sc3ccc4nc[nH]c(=O)c4c3)nc(N3CC(N)C3)c2c1Cl.O=C(O)C(F)(F)F [700,694]
S. aureus ATCC 13709; S. aureus
  MIC, SA: 2 µg/mL
S. pneumoniae ATCC 51916; S. pneumoniae
  MIC Spn52: 8 µg/mL

## CCOc1nc(Nc2cnc3c(c2)nnn3CC2CC2)nc2[nH]c(CC)c(Br)c12.O=C(O)C(F)(F)F [700,476]
S. aureus ATCC 13709; S. aureus
  MIC, SA: > 64 µg/mL
S. pneumoniae ATCC 51916; S. pneumoniae
  MIC Spn52: > 64 µg/mL

## CCc1[nH]c2nc(Sc3nc(C(=O)O)cs3)nc(N3CCN(C(C)=O)CC3)c2c1Cl.O=C(O)C(F)(F)F [700,356]
S. aureus ATCC 13709; S. aureus
  MIC, SA: > 64 µg/mL
S. pneumoniae ATCC 51916; S. pneumoniae
  MIC Spn52: > 64 µg/mL
